pIC50: −log10 of the molar value. Calls of active or inactive are those of the source. The calls are words filed in the database; no cut-off is given here.
Legend:
Plasma [1] = assay: Anticoagulation activity in AT-III-deficient human plasma preincubated for 2 mins followed by APTT reagent and measured after 3 mins by coagulometric method; type: functional, cell-free; conditions: time 5.0 min
[2] = target: T1, Coagulation factor VII (Homo sapiens) (UniProt P08709); assay: Inhibition of factor 7a (unknown origin) at IC50 using pefachrome factor VIIa as substrate preincubated for 1 min followed by chromogenic substrate addition and measured for 2 mins; conditions: time 3.0 min
T1 sequence (whole entry): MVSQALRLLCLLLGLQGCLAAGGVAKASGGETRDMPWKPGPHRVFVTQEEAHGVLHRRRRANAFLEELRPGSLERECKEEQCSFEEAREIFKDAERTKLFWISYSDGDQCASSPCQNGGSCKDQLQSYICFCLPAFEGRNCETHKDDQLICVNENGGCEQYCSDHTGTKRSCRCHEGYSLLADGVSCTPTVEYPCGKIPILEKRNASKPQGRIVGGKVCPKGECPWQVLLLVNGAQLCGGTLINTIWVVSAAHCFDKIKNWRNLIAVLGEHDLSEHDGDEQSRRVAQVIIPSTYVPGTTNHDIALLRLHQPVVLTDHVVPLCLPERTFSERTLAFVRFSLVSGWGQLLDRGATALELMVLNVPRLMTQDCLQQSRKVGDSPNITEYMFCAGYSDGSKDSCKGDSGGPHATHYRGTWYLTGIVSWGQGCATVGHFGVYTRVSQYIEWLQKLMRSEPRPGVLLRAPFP

Rattus norvegicus [3] = assay: (§1) Antithrombotic activity in thromboplastin and stasis-induced Sprague-Dawley rat deep venous thrombosis model assessed as reduction in venous thrombosis at 13.5 mg/kg, sc administered 1 hr prior to thromboplastin addition for 20 secs followed by establishment of stasis for 20 mins relative to dHG-5; type: functional; conditions: time 80.33 min, 1.339 h
Rattus norvegicus [4] = assay: Antithrombotic activity in thromboplastin and stasis-induced Sprague-Dawley rat deep venous thrombosis model assessed as reduction in venous thrombosis at 13.5 mg/kg, sc administered 1 hr prior to thromboplastin addition for 20 secs followed by establishment of stasis for 20 mins; type: functional; set-up: scale not given: the % may be the effect or the level left; conditions: time 80.33 min, 1.339 h
[5] = target: Prothrombin (Homo sapiens) (UniProt P00734); assay: Inhibition of factor 2a (unknown origin) at IC90 preincubated for 1 min followed by chromogenic substrate addition and measured for 2 mins in presence of AT-III; conditions: time 3.0 min
[6] = target: Coagulation factor XI (Homo sapiens) (UniProt P03951); assay: Inhibition of factor 11a (unknown origin) at IC50 using S-2366 as substrate preincubated for 1 min followed by chromogenic substrate addition and measured for 2 mins in presence of AT-III; conditions: time 3.0 min
[7] = target: T2, Coagulation factor IX/VIII (Homo sapiens) (UniProt P00740+P00451); assay: Inhibition of human citrated plasma iXase (factor 8a-factor 9a complex) assessed as activity potency of oligosaccharides multiplied by the percentage of oligosaccharides in dHG-5 preincubated for 2 mins followed by factor 10 addition and measured after 1 min by FXa chromogenic substrate SXa-11 based assay relative to dHG-5; type: protein-complex assay; conditions: time 3.0 min
Plasma [8] = assay: Anticoagulation activity in HCII-deficient human plasma preincubated for 2 mins followed by APTT reagent and measured after 3 mins by coagulometric method; type: functional, cell-free; conditions: time 5.0 min
[9] = target: Coagulation factor X (Homo sapiens) (UniProt P00742); assay: Inhibition of factor 10a (unknown origin) at IC50 preincubated for 1 min followed by chromogenic substrate addition and measured for 2 mins in presence of AT-III; conditions: time 3.0 min
Coagulation factor IX [10] = target: T3, Coagulation factor IX (Homo sapiens, UniProt P00740); assay: Inhibition of factor 9a (unknown origin) binding to immobilized biotinylated oHG-11 by biolayer interferometry relative to dHG-5
[11] = target: Prothrombin (Homo sapiens) (UniProt P00734); assay: Inhibition of factor 2a (unknown origin) at IC50 preincubated for 1 min followed by chromogenic substrate addition and measured for 2 mins; conditions: time 3.0 min
Rattus norvegicus [12] = assay: as §1, with “venous thrombosis by measuring activity potency of oligosaccharides multiplied by the percentage of oligosaccharides in dHG-5 at 13.5” for “venous thrombosis at 13.5”; type: functional; conditions: time 80.33 min, 1.339 h
[13] = target: Prothrombin (Homo sapiens) (UniProt P00734); assay: Inhibition of factor 2a (unknown origin) at IC50 preincubated for 1 min followed by chromogenic substrate addition and measured for 2 mins in presence of AT-III; conditions: time 3.0 min
[14] = target: Coagulation factor X (Homo sapiens) (UniProt P00742); assay: Inhibition of factor 10a (unknown origin) at IC50 preincubated for 1 min followed by chromogenic substrate addition and measured for 2 mins; conditions: time 3.0 min
[15] = target: T4, Coagulation factor XII (Homo sapiens) (UniProt P00748); assay: Inhibition of factor 12a (unknown origin) at IC50 using kallikrein chromogenic substrate preincubated for 1 min followed by chromogenic substrate addition and measured for 2 mins; conditions: time 3.0 min
T4 sequence (whole entry): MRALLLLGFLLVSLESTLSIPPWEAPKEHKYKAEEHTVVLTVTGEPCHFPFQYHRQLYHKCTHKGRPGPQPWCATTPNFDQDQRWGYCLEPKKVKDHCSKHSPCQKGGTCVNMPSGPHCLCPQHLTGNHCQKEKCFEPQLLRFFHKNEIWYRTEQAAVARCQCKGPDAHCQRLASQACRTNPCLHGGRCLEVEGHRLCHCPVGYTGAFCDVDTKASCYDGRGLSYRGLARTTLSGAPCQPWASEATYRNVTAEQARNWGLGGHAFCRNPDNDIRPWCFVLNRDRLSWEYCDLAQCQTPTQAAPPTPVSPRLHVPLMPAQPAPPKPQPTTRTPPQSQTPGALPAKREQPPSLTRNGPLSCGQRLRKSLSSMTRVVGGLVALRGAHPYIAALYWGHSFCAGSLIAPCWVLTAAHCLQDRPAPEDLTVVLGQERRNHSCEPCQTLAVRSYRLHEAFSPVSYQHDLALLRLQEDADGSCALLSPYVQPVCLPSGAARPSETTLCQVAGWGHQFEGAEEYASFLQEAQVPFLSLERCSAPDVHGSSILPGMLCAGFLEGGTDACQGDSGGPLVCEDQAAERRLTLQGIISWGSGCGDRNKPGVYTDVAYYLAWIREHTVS

[16] = target: Coagulation factor X (Homo sapiens) (UniProt P00742); assay: Inhibition of factor 10a (unknown origin) at IC90 preincubated for 1 min followed by chromogenic substrate addition and measured for 2 mins in presence of AT-III relative to control; conditions: time 3.0 min
Plasma [17] = assay: Anticoagulation activity in human plasma assessed as drug level causing 20 times doubling of APTT preincubated for 2 mins followed by APTT reagent and measured after 3 mins by coagulometric method; type: functional; conditions: time 5 min
[18] = target: Coagulation factor XI (Homo sapiens) (UniProt P03951); assay: Inhibition of factor 11a (unknown origin) at IC50 using S-2366 as substrate preincubated for 1 min followed by chromogenic substrate addition and measured for 2 mins; conditions: time 3.0 min
[19] = target: T4, Coagulation factor XII (Homo sapiens); assay: Inhibition of factor 12a (unknown origin) at IC50 using kallikrein chromogenic substrate preincubated for 1 min followed by chromogenic substrate addition and measured for 2 mins in presence of AT-III; conditions: time 3.0 min
Plasma [20] = assay: (§2) Anticoagulation activity in human plasma assessed as drug level causing 20 times doubling of APTT preincubated for 2 mins followed by APTT reagent and measured after 3 mins by coagulometric method relative to dHG-5; type: functional; conditions: time 5 min
[21] = target: Coagulation factor IX/VIII (Homo sapiens, UniProt P00451+P00740); assay: Inhibition of human citrated plasma iXase (factor 8a-factor 9a complex) preincubated for 2 mins followed by factor 10 addition and measured after 1 min by FXa chromogenic substrate SXa-11 based assay; type: protein-complex assay
Plasma [22] = assay: as §2, with “of APTT by measuring activity potency of oligosaccharides multiplied by the percentage of oligosaccharides in dHG-5 preincubated for” for “of APTT preincubated for”; type: functional; conditions: time 5 min
Coagulation factor IX [23] = target: T3, Coagulation factor IX; assay: Inhibition of factor 9a (unknown origin) binding to immobilized biotinylated oHG-11 assessed as activity potency of oligosaccharides multiplied by the percentage of oligosaccharides in dHG-5 by biolayer interferometry relative to dHG-5
Coagulation factor IX [24] = target: T3, Coagulation factor IX; assay: Inhibition of factor 9a (unknown origin) binding to immobilized biotinylated oHG-11 by biolayer interferometry
[25] = target: T2, Coagulation factor IX/VIII (Homo sapiens); assay: Inhibition of human citrated plasma iXase (factor 8a-factor 9a complex) preincubated for 2 mins followed by factor 10 addition and measured after 1 min by FXa chromogenic substrate SXa-11 based assay relative to dHG-5; type: protein-complex assay; conditions: time 3.0 min
[26] = target: Coagulation factor XI (Homo sapiens) (UniProt P03951); assay: Inhibition of factor 11a (unknown origin) at IC90 using S-2366 as substrate preincubated for 1 min followed by chromogenic substrate addition and measured for 2 mins in presence of AT-III; conditions: time 3.0 min
[27] = target: T1, Coagulation factor VII (Homo sapiens); assay: Inhibition of factor 7a (unknown origin) at IC50 using pefachrome factor VIIa as substrate preincubated for 1 min followed by chromogenic substrate addition and measured for 2 mins in presence of AT-III; conditions: time 3.0 min
Rattus norvegicus [28] = assay: (§3) Antithrombotic activity in thromboplastin and stasis-induced Sprague-Dawley rat deep venous thrombosis model assessed as reduction in venous thrombosis at 4.94 mg/kg, sc administered 1 hr prior to thromboplastin addition for 20 secs followed by establishment of stasis for 20 mins relative to dHG-5; type: functional; conditions: time 80.33 min, 1.339 h
Plasma [29] = assay: Induction of platelet aggregation in human platelet rich plasma at plasma peak concentration of 10 times anti-thrombosis ED50 measured after 10 mins by light transmission aggregometry
Rattus norvegicus [30] = assay: as §3, with “venous thrombosis by measuring activity potency of oligosaccharides multiplied by the percentage of oligosaccharides in dHG-5 at 4.94” for “venous thrombosis at 4.94”; type: functional; conditions: time 80.33 min, 1.339 h
Plasma [31] = assay: Induction of platelet aggregation in rat wash platelet at plasma peak concentration of 10 times anti-thrombosis ED50 measured after 10 mins by light transmission aggregometry

Coagulation factor X (Homo sapiens), sequence (P00742 41-179 limits assumed): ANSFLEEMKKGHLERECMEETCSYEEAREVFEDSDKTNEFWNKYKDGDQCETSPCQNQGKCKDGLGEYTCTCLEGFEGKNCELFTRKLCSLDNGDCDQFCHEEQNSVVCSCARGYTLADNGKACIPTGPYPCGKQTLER
Coagulation factor X (Homo sapiens), sequence (P00742 235-488 limits assumed): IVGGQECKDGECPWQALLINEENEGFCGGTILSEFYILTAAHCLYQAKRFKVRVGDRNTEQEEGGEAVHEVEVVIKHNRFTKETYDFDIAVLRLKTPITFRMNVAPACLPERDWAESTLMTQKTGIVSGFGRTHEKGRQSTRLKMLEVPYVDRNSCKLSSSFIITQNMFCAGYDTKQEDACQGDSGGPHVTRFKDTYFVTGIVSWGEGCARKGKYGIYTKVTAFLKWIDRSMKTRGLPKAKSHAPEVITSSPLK
T3 sequence (P00740 47-191 limits assumed): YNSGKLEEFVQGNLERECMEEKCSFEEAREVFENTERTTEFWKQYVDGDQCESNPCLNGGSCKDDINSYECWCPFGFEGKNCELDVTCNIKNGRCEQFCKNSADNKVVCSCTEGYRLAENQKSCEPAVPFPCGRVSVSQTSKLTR
T3 sequence (P00740 227-461 limits assumed): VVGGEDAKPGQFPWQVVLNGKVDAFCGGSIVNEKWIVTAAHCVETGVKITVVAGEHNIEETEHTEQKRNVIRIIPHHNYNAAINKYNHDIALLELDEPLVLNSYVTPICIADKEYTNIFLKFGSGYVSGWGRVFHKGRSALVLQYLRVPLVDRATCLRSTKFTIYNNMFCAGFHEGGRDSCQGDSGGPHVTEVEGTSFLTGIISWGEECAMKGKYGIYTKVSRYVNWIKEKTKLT
Coagulation factor XI (Homo sapiens), sequence (P03951 19-387 limits assumed): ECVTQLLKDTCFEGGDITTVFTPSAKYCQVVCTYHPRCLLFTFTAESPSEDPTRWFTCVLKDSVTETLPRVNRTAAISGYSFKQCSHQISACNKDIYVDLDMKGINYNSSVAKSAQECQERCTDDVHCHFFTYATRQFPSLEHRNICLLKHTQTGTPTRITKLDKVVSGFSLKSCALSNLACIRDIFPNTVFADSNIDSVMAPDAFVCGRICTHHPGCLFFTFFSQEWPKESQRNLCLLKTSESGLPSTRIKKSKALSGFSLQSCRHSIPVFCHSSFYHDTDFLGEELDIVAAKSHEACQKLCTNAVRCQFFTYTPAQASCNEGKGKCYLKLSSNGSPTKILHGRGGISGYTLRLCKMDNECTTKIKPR
Coagulation factor XI (Homo sapiens), sequence (P03951 388-625 limits assumed): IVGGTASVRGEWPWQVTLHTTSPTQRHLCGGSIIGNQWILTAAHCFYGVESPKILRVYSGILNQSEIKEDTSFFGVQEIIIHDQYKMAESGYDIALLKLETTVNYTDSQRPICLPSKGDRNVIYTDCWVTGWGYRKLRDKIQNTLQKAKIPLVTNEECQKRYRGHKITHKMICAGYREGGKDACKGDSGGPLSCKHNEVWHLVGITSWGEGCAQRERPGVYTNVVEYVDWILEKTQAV
Coagulation factor IX/VIII, sequence (P00451 20-759 limits assumed): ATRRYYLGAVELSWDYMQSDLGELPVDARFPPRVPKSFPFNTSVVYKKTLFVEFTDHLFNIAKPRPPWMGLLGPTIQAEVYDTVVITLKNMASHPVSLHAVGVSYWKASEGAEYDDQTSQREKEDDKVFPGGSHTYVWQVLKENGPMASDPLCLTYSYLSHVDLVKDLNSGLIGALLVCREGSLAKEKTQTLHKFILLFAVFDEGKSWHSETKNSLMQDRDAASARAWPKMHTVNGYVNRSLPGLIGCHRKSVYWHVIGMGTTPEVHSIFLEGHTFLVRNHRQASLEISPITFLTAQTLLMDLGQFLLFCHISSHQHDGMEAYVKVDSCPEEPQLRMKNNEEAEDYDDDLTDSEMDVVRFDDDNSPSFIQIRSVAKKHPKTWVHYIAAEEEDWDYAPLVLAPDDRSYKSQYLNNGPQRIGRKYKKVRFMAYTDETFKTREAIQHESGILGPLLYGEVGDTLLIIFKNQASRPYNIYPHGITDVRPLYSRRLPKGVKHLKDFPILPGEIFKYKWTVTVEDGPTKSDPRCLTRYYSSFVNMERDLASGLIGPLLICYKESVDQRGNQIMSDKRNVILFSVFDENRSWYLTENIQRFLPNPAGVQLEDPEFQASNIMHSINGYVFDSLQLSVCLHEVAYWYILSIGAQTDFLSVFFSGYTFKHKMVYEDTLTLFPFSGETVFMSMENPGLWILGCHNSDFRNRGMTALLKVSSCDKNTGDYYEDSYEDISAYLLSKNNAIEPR
Coagulation factor IX/VIII, sequence (P00451 1668-2351 limits assumed): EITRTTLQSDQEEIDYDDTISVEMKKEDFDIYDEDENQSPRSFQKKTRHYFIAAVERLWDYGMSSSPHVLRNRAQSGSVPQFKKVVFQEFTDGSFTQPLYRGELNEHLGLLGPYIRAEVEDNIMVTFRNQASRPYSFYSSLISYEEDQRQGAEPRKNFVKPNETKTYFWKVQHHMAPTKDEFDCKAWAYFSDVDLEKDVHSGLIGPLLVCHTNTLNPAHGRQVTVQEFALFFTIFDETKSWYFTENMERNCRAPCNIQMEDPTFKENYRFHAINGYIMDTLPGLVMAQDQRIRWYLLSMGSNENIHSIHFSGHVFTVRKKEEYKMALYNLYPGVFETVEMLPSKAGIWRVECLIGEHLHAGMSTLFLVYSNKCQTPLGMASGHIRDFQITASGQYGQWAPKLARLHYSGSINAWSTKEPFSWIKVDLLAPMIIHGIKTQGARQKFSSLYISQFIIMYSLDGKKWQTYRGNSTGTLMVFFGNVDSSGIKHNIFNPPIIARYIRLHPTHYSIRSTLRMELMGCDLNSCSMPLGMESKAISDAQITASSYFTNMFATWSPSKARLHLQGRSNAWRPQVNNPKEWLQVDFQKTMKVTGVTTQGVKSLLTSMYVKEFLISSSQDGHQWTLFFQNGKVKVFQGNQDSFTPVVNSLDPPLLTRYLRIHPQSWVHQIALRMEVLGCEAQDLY
Coagulation factor IX/VIII, sequence (P00740 47-191 limits assumed): as the sequence (P00740 47-191 limits assumed) above
Coagulation factor IX/VIII, sequence (P00740 227-461 limits assumed): as the sequence (P00740 227-461 limits assumed) above

CC(=O)N[C@H]1[C@H](O[C@@H]([C@H](O[C@@H]2O[C@@H](C)[C@@H](OS(=O)(=O)[O-])[C@@H](OS(=O)(=O)O)[C@@H]2O)[C@@H](O)CO)[C@H](O)C(=O)[O-])O[C@H](COS(=O)(=O)[O-])[C@H](OS(=O)(=O)[O-])[C@@H]1O[C@@H]1OC(C(=O)[O-])=C[C@H](O[C@@H]2O[C@@H](C)[C@@H](OS(=O)(=O)[O-])[C@@H](OS(=O)(=O)O)[C@@H]2O)[C@H]1O.[Na+].[Na+].[Na+].[Na+].[Na+].[Na+]
Activity (Plasma [1]): Active
inhibition (active/not active) [2]: Active
Ratio (Rattus norvegicus [3]): 3.96 U
Activity (Rattus norvegicus [4]): 30.8%
inhibition [5]: Active
inhibition [6]: inactive
Ratio [7]: 0.02 U
Activity (Plasma [8]): Active
inhibition [9]: inactive
Ratio (Coagulation factor IX [10]): 3.32 U
inhibition [11]: inactive
Ratio (Rattus norvegicus [12]): 0.19 U
inhibition [13]: inactive
inhibition [14]: inactive
inhibition [15]: inactive
inhibition [16]: 14.2%
EC (Plasma [17]): 199 µM
inhibition [18]: inactive
inhibition [19]: inactive
Ratio (Plasma [20]): 0.9 U
pIC50 [21]: < 5.52
Ratio (Plasma [22]): 0.04 U
Ratio (Coagulation factor IX [23]): 0.16 U
pIC50 (Coagulation factor IX [24]): 4.89
Ratio [25]: 0.36 U
inhibition [26]: Active
inhibition [27]: inactive

CC(=O)N[C@H]1[C@H](O[C@@H]([C@H](O[C@@H]2O[C@@H](C)[C@@H](OS(=O)(=O)[O-])[C@@H](OS(=O)(=O)O)[C@@H]2O)[C@@H](O)CO)[C@H](O)C(=O)[O-])O[C@@H](COS(=O)(=O)[O-])[C@H](OS(=O)(=O)[O-])[C@@H]1O[C@@H]1O[C@H](C(=O)[O-])[C@@H](O[C@@H]2O[C@H](COS(=O)(=O)[O-])[C@H](OS(=O)(=O)[O-])[C@H](O[C@@H]3OC(C(=O)[O-])=C[C@H](O[C@@H]4O[C@@H](C)[C@@H](OS(=O)(=O)[O-])[C@@H](S(=O)(=O)O)[C@@H]4O)[C@H]3O)[C@H]2NC(C)=O)[C@H](O[C@@H]2O[C@@H](C)[C@@H](OS(=O)(=O)[O-])[C@@H](OS(=O)(=O)O)[C@@H]2O)[C@@H]1O.[Na+].[Na+].[Na+].[Na+].[Na+].[Na+].[Na+].[Na+].[Na+].[Na+]
Activity (Plasma [1]): Active
inhibition (active/not active) [2]: inactive
inhibition [5]: Active
inhibition [6]: inactive
Ratio [7]: 1.56 U
Activity (Plasma [8]): Active
inhibition [9]: inactive
Ratio (Coagulation factor IX [10]): 13 U
Ratio (Rattus norvegicus [28]): 24.31 U
inhibition [11]: inactive
inhibition [13]: inactive
Activity (Plasma [29]): Not Active
Ratio (Rattus norvegicus [30]): 4.23 U
inhibition [14]: inactive
inhibition [15]: inactive
inhibition [16]: 14.2%
inhibition [18]: inactive
inhibition [19]: inactive
Ratio (Plasma [20]): 10.96 U
Activity (Plasma [31]): Not Active
Ratio (Plasma [22]): 1.91 U
Ratio (Coagulation factor IX [23]): 2.27 U
Ratio [25]: 8.98 U
inhibition [26]: Active
inhibition [27]: inactive

— ChEMBL document CHEMBL4765450, “The components and activities analysis of a novel anticoagulant candidate dHG-5” (Eur J Med Chem, 2020)
